Where two headings read alike, the source gives them in different places.
What was measured:
MDR1 (P-gp) [1] = experiment: in vitro; settings: dog, MDCK-MDR1, pH 7.4
[2] = tested on: mHTT protein in GM04724 (CAG 70/20) Huntington's disease patient lymphoblast cells; experiment: mHTT protein assay, 2B7-MW1 assay via Mesoscale Discovery (MSD); format: cell-based, human
Procedure: Example A10: mHTT Protein Assay
Compounds are tested on GM04724 (CAG 70/20) Huntington's disease patient lymphoblast cells at doses ranging from 10 μM to 0.6 nM. 4,500 cells/well are seeded in 384 well plates. One plate replica is carried out for parallel viability testing by CellTiter Glo (CTG). Compounds are incubated for 48 hours. mHTT protein levels are assessed by the 2B7-MW1 assay via Mesoscale Discovery (MSD) as previously reported (Macdonald et al., 2014). The antibody pair is comprised of previously characterized monoclonals (2B7 and MW1) interrogating two regions for HTT conformation and biological properties: the N, 17 domain and the polyQ domain (Baldo et al., 2012; Ko et., 2001). 2B7-MW1 is […] specific levels of HTT at the time of treatment. 2B7-MW1 is dependent on polyQ expansion (e.g., the higher the expansion the higher the signal) and on mHTT size (e.g., a similar polyQ will give higher signal with smaller HTT size). The viability readout is carried out by CTG according to the manufacturer's instructions.

[3] = tested on: MDR1-MDCK cell monolayers; settings: dog, MDCK-MDR1, 120 min, 5 μM, pH 7.4
[4] = tested on: SMN protein in spinal muscular atrophy (SMA) patient fibroblasts (GM03813, Coriell); experiment: SMN protein assay, Mesoscale Discovery (MSD); format: cell-based, human; settings: read-out: SMN2 protein EC50
Procedure: Example A12: SMN Protein Assay
Compounds are tested on spinal muscular atrophy (SMA) patient fibroblasts (GM03813, Coriell) at doses ranging from 2.5 μM to 0.6 nM. 7000 cells/well are seeded in 96-well plates. Compounds are incubated for 48 hours and the cells were lysed with 100 μL of lysis buffer. 20 μL of lysate is used for SMN protein measurement by Mesoscale Discovery (MSD) assay developed by PharmOptima (Michigan). A standard curve prepared with SMN protein ranging from 1 μg/ml to 19.5 pg/ml is used in each MSD plate to calculate the absolute SMN protein amount in each sample.

[5] = tested on: MDR1-MDCK cell monolayers; experiment: Blood-brain-barrier (BBB) penetration potential via MDCK-MDR1 permeability assay
MDR1 = experiment: as above; settings: dog, MDCK-MDR1, pH 7.4, MDCK-MDR1: Efflux
MDR1 (P-gp) [6] = experiment: as above; settings: dog; for Papp A→B at 120 min, 5 μM: MDCK-MDR1, pH 7.4, MDCK-MDR1: Papp A-B; for Papp B→A at 120 min, 5 μM: MDCK-MDR1, pH 7.4, MDCK-MDR1: Papp B-A
[7] = GM04724 (CAG 70/20) Huntington's disease patient lymphoblasts
[8] = SMA patient fibroblasts (GM03813), 48 hours
[9] = GM04724 Huntington's disease patient lymphoblasts
[10] = SMA patient fibroblasts GM03813, 48 hours, MSD

`CN(c1ccc(-c2cc3cnccc3cc2O)nn1)[C@H]1C[C@@H]2CC(F)(F)[C@H](C1)N2` [Compound 126B, 7-(6-(((1R,3S,5S)-6,6-difluoro-8-azabicyclo[3.2.1]octan-3-yl)(methyl)amino)pyridazin-3-yl)isoquinolin-6-ol] was tested, and the Papp A→B at 120 min, 5 μM (MDR1 (P-gp) [1]) was 12.6 ×10⁻⁶ cm/s, the Papp B→A at 120 min, 5 μM (MDR1 (P-gp) [1]) was 39.4 ×10⁻⁶ cm/s and the efflux ratio at 120 min, 5 μM (MDR1 (P-gp) [1]) was 3. The “mHTT protein EC50” value [2, 7] was “E (501 ≤ E ≤ 10.000)”, the “MDCK-MDR1: % Recov A-B” value [3] was 75% and the “MDCK-MDR1: % Recov B-A” value [3] was 88%. It also gave an EC50 [4, 8] of 101 to 500 nM.

For `COc1cn(-c2ccc(-c3ccc(N(C)[C@H]4C[C@@H]5CC(F)(F)[C@H](C4)N5)nn3)c(O)c2)cn1` [Compound 19B, 2-(6-(((1R,3S,5S)-6,6-difluoro-8-azabicyclo[3.2.1]octan-3-yl)(methyl)amino)pyridazin-3-yl)-5-(4-methoxy-1H-imidazol-1-yl)phenol], the “MDCK-MDR1: % Recov A-B” value ([5]; A-B direction) was 91%, the “MDCK-MDR1: % Recov B-A” value ([5]; B-A direction) was 88% and the efflux ratio at 120 min, 5 μM (MDR1; efflux ratio) was 5. For the same molecule, the Papp A→B at 120 min, 5 μM (MDR1 (P-gp) [6]; A-B direction) was 12.2 ×10⁻⁶ cm/s, the Papp B→A at 120 min, 5 μM (MDR1 (P-gp) [6]; B-A direction) was 63.3 ×10⁻⁶ cm/s and the “mHTT protein EC50” value [2, 9] was “E (501 ≤ E ≤ 10.000)”. The EC50 [4, 10] was 51 to 100 nM.

For `CC(=O)N(C)c1ccc(-c2ccc(N(C)[C@H]3C[C@@H]4CC[C@@H](N4)[C@H]3F)nn2)c(O)c1` [Compound 35B, N-(4-(6-(((1R,2R,3S,5S)-2-fluoro-8-azabicyclo[3.2.1]octan-3-yl)(methyl)amino)pyridazin-3-yl)-3-hydroxyphenyl)-N-methylacetamide], the “MDCK-MDR1: % Recov A-B” value ([5]; A-B direction) was 103%, the “MDCK-MDR1: % Recov B-A” value ([5]; B-A direction) was 99% and the efflux ratio at 120 min, 5 μM (MDR1; efflux ratio) was 181. For the same molecule, the Papp A→B at 120 min, 5 μM (MDR1 (P-gp) [6]; A-B direction) was 0.23 ×10⁻⁶ cm/s, the Papp B→A at 120 min, 5 μM (MDR1 (P-gp) [6]; B-A direction) was 42 ×10⁻⁶ cm/s and the “mHTT protein EC50” value [2, 9] was “E (501 ≤ E ≤ 10.000)”. It also gave an EC50 [4, 10] of 0.01 to 15 nM.

With `CN(c1ccc(-c2ccc(-n3cnc(Cl)c3)cc2O)nn1)[C@H]1C[C@@H]2CC(F)(F)[C@H](C1)N2` [Compound 37B, 5-(4-chloro-1H-imidazol-1-yl)-2-(6-(((1R,3S,5S)-6,6-difluoro-8-azabicyclo[3.2.1]octan-3-yl)(methyl)amino)pyridazin-3-yl)phenol] the “MDCK-MDR1: % Recov A-B” value ([5]; A-B direction) was 54%, the “MDCK-MDR1: % Recov B-A” value ([5]; B-A direction) was 70% and the efflux ratio at 120 min, 5 μM (MDR1; efflux ratio) was 2. The Papp A→B at 120 min, 5 μM (MDR1 (P-gp) [6]; A-B direction) was 19 ×10⁻⁶ cm/s, the Papp B→A at 120 min, 5 μM (MDR1 (P-gp) [6]; B-A direction) was 32.7 ×10⁻⁶ cm/s and the EC50 [2, 9] was 51 to 100 nM. For the same molecule, the EC50 [4, 10] was 101 to 500 nM.

For `Cc1nc2cc(-c3ccc(N(C)[C@@H]4C[C@H]5CC[C@H](N5)[C@@H]4F)nn3)c(O)cc2c(=O)n1CC(F)(F)F` [Compound 113A, 7-(6-(((1S,2S,3R,5R)-2-fluoro-8-azabicyclo[3.2.1]octan-3-yl)(methyl)amino)pyridazin-3-yl)-6-hydroxy-2-methyl-3-(2,2,2-trifluoroethyl)quinazolin-4(3H)-one], the “MDCK-MDR1: % Recov A-B” value ([5]; A-B) was 96%, the “MDCK-MDR1: % Recov B-A” value ([5]; B-A) was 99% and the efflux ratio at 120 min, 5 μM (MDR1) was 333. For the same molecule, the Papp A→B at 120 min, 5 μM (MDR1 (P-gp) [6]; A-B) was 0.2 ×10⁻⁶ cm/s, the Papp B→A at 120 min, 5 μM (MDR1 (P-gp) [6]; B-A) was 66.9 ×10⁻⁶ cm/s and the “mHTT protein EC50” value [2, 7] was “E (501 ≤ E ≤ 10.000)”. For the same molecule, the EC50 [4, 8] was 0.01 to 15 nM.

`Cc1cnc(-c2ccc(-c3ccc(N(C)[C@@H]4C[C@H]5CCC[C@H](N5)[C@@H]4F)nn3)c(O)c2)cn1` [Compound 26A, 2-(6-(((1S,2S,3R,5R)-2-fluoro-9-azabicyclo[3.3.1]nonan-3-yl)(methyl)amino)pyridazin-3-yl)-5-(5-methylpyrazin-2-yl)phenol] was tested, and the “MDCK-MDR1: % Recov A-B” value ([5]; A-B direction) was 65%, the “MDCK-MDR1: % Recov B-A” value ([5]; B-A direction) was 77% and the efflux ratio at 120 min, 5 μM (MDR1; efflux ratio) was 21. It also gave a Papp A→B at 120 min, 5 μM (MDR1 (P-gp) [6]; A-B direction) of 2.09 ×10⁻⁶ cm/s, a Papp B→A at 120 min, 5 μM (MDR1 (P-gp) [6]; B-A direction) of 43.6 ×10⁻⁶ cm/s and an EC50 [2, 9] of 101 to 500 nM. The EC50 [4, 10] was 51 to 100 nM.

For `CN(c1ccc(-c2cc3cncnc3cc2O)nn1)[C@@H]1C[C@H]2CC[C@H](N2)[C@@H]1F` [Compound 75A, 6-(6-(((1S,2S,3R,5R)-2-fluoro-8-azabicyclo[3.2.1]octan-3-yl)(methyl)amino)pyridazin-3-yl)quinazolin-7-ol], the “MDCK-MDR1: % Recov A-B” value ([5]; A-B direction) was 101%, the “MDCK-MDR1: % Recov B-A” value ([5]; B-A direction) was 100% and the efflux ratio at 120 min, 5 μM (MDR1; efflux ratio) was 22. The Papp A→B at 120 min, 5 μM (MDR1 (P-gp) [6]; A-B direction) was 2.31 ×10⁻⁶ cm/s, the Papp B→A at 120 min, 5 μM (MDR1 (P-gp) [6]; B-A direction) was 50.3 ×10⁻⁶ cm/s and the EC50 [2, 9] was 101 to 500 nM. For the same molecule, the EC50 [4, 10] was 51 to 100 nM.

From patent US12509460B2 (Skyhawk Therapeutics, Inc., priority 2019, dated 2025)
